Values after ≈ are worked out from the molar mass of the structure shown.
Legend:
Experiment in all cases: microbe, parasite or virus in culture
Assay type in all cases: cell-based
[1] = test system: C. glabrata YEM-19 (CgCDR overexpressor)
[2] = test system: C. albicans YEM-15 (CDR1 & CDR2 overexpressor)
[3] = test system: S. cerevisiae YEM-39 (CgCDR introduced)
[4] = test system: C. albicans YEM-15 (CDR1 and CDR2 overexpressor)
[5] = test system: S. cerevisiae YEM-37 (CDR2 introduced)
[6] = test system: C. albicans YEM-5 (CDR1 and CDR2 overexpressor)
[7] = test system: S. cerevisiae YEM-38 (FLU1 introduced)
[8] = test system: C. albicans YEM-13 (BEN overexpressor)
[9] = test system: S. cerevisiae YEM-40 (CgCDR, MF, introduced)
[10] = test system: S. cerevisiae YEM-3 (no efflux pump introduced); settings: Saccharomyces cerevisiae, read-out: MIC Flu alone
[11] = test system: C. albicans YEM-11 (BEN overexpressor)
[12] = test system: S. cerevisiae YEM-2 (BEN introduced); settings: YEM-2, BEN; milbemycin β1 […]
[13] = test system: S. cerevisiae YEM-1 (CDR1 introduced); settings: YEM-1, CDR1; milbemycin β1 […]
[14] = Saccharomyces cerevisiae, read-out: MIC Flu alone
[15] = Candida albicans, read-out: MIC Flu alone

Milbemycin oxime [Compound 2]
MIC of fluconazole, Flu + McOxm (2.5 μg/ml) [1]: 128 µg/mL | MIC of fluconazole, Flu + McOxm (2.5 μg/ml) [2]: 0.25 µg/mL

OC(Cn1cncn1)(Cn1cncn1)c1ccc(F)cc1F [Fluconazole, fluconazole, reference compound]
MIC [3, 14]: 32 µg/mL (≈ 104 µM) | MIC [4, 15]: 128 µg/mL (≈ 418 µM) | MIC [5, 14]: 2 µg/mL (≈ 6.53 µM) | MIC ([1]; Nakaseomyces glabratus, read-out: MIC Flu alone): > 128 µg/mL | MIC [6, 15]: > 128 µg/mL | MIC [7, 14]: 4 µg/mL (≈ 13.1 µM) | MIC [8, 15]: 32 µg/mL (≈ 104 µM) | MIC [9, 14]: 16 µg/mL (≈ 52.2 µM) | MIC [10]: 0.25 µg/mL (≈ 0.816 µM) | MIC [11, 15]: 32 µg/mL (≈ 104 µM) | MIC [2, 15]: 128 µg/mL (≈ 418 µM)

CO[C@H]1C[C@@]2(O)/C(CO)=C/C=C/[C@H](C)C/C(C)=C/C[C@@H]3C[C@@H](C[C@]4(CC[C@H](C)[C@@H](C)O4)O3)OC(=O)[C@@H]2C=C1C [Compound 6, Milbemycin β1]
MIC of fluconazole, Flu + Mb ([…]) ([3]; YEM-39, CgCDR, milbemycin β1 […]): 1 µg/mL | MIC of fluconazole, Flu + Mb (2.5 μg/ml) ([4]; YEM-15, milbemycin β1 2.5 μg/ml): 1 µg/mL | MIC of fluconazole, Flu + Mb ([…]) ([5]; YEM-37, CDR2, milbemycin β1 […]): 0.25 µg/mL | MIC of fluconazole, Flu + Mb ([…]) [12]: 128 µg/mL | MIC of fluconazole, Flu + Mb (2.5 μg/ml) ([6]; YEM-5, milbemycin β1 2.5 μg/ml): 8 µg/mL | MIC of fluconazole, Flu + Mb ([…]) ([7]; YEM-38, FLU1, milbemycin β1 […]): 4 µg/mL | MIC of fluconazole, Flu + Mb (2.5 μg/ml) ([8]; YEM-13, milbemycin β1 2.5 μg/ml): 32 µg/mL | MIC of fluconazole, Flu + Mb ([…]) ([9]; YEM-40, CgCDR (MF), milbemycin β1 […]): 16 µg/mL | MIC of fluconazole, Flu + Mb (2.5 μg/ml) ([11]; YEM-11, milbemycin β1 2.5 μg/ml): 32 µg/mL | MIC of fluconazole, Flu + Mb ([…]) [13]: 0.25 µg/mL

— patent US6495591B1, “Fungal efflux pump inhibitors” (Essential Therapeutics, Inc., priority 1997, dated 2002)
